# Assay results published in article PMC11594608, “Sulfonamide-Based Inhibition of the β-Carbonic Anhydrase from A. baumannii, a Multidrug-Resistant Bacterium” (International Journal of Molecular Sciences, 2024).
# Target: T1, βAbauCA (CanB) (Acinetobacter baumannii, UniProt A0A7U3Y636)
# T1 construct: gene AB57_1063; oligomer not determined here
# T1 sequence (A0A7U3Y636 1-204): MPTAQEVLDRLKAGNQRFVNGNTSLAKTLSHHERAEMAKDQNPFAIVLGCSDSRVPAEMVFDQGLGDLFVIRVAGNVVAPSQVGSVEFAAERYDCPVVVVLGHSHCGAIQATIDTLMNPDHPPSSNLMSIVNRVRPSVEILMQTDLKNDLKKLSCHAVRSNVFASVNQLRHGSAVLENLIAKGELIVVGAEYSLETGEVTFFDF
# Assay: stopped-flow CO2 hydrase assay
# Type: biochemical
# Conditions: CO2 substrate, […] TRIS pH […] NaClO4, […] °C, […] min preincubation
row,SMILES,Ki
1,"Nc1nnc(S(N)(=O)=O)s1 [compound 13, 13]",444 nM
2,CC(=O)N=c1sc(S(N)(=O)=O)nn1C [MZA],249 nM
3,Cc1ccc(-c2cc(C(F)(F)F)nn2-c2ccc(S(N)(=O)=O)cc2)cc1 [CLX],270 nM
4,"CC(=O)Nc1nnc(S(N)(=O)=O)s1 [AAZ, 5-acetamido-1,3,4-thiadia-zole-2-sulphonamide]",191 nM
5,"CC1(C)O[C@@H]2[C@@H](CO[C@@]3(COS(N)(=O)=O)OC(C)(C)O[C@@H]23)O1 [TPM, topiramate]",2770 nM
6,CCN[C@H]1C[C@H](C)S(=O)(=O)c2sc(S(N)(=O)=O)cc21 [DZA],232 nM
7,NS(=O)(=O)c1cc2c(cc1Cl)NCNS2(=O)=O [HCT],875 nM
8,"Nc1ccc(S(=O)(=O)NCCc2ccc(S(N)(=O)=O)cc2)cc1 [compound 24, 24]",326 nM
9,NS(=O)(=O)Cc1noc2ccccc12 [ZNS],2340 nM
10,"Nc1cc(Cl)c(S(N)(=O)=O)cc1S(N)(=O)=O [compound 12, 12]",1200 nM
11,NS(=O)(=O)c1ccc(N2CCCCS2(=O)=O)cc1 [SLT],542 nM
12,"Nc1ccc(S(=O)(=O)Nc2nnc(S(N)(=O)=O)s2)cc1 [compound 20, 20]",344 nM
13,"Nc1cc(C(F)(F)F)c(S(N)(=O)=O)cc1S(N)(=O)=O [compound 11, 11]",928 nM
14,"NS(=O)(=O)c1ccc(CO)cc1 [compound 16, 16]",700 nM
15,O=C1NS(=O)(=O)c2ccccc21 [SAC],7490 nM
16,"NS(=O)(=O)c1ccc(C(=O)O)cc1 [compound 18, 18]",547 nM
17,Cc1onc(-c2ccccc2)c1-c1ccc(S(N)(=O)=O)cc1 [VLX],215 nM
18,"Cc1ccc(S(N)(=O)=O)cc1 [compound 4, 4]",1480 nM
19,CCN1CCCC1CNC(=O)c1cc(S(N)(=O)=O)ccc1OC (stereo not shown) [SLP],6860 nM
20,"Cn1nc(S(N)(=O)=O)sc1=N [compound 14, 14]",604 nM
21,"Nc1ccc(S(=O)(=O)NCc2ccc(S(N)(=O)=O)cc2)cc1 [compound 23, 23]",317 nM
22,"Nc1nccc(Nc2ccc(S(N)(=O)=O)cc2)n1 [compound 19, 19]",407 nM
23,"NS(=O)(=O)c1ccc(O)cc1 [compound 15, 15]",625 nM
24,"CCN[C@H]1CN(CCCOC)S(=O)(=O)c2sc(S(N)(=O)=O)cc21 [BRZ, Brinzolamide]",170 nM
25,"NS(=O)(=O)c1nnc(NS(=O)(=O)c2ccccc2)s1 [BZA, Benzolamide]",113 nM
26,"Nc1ccc(S(=O)(=O)Nc2ccc(S(N)(=O)=O)cc2)cc1 [compound 22, 22]",276 nM
27,NS(=O)(=O)c1cc(Cl)c(Cl)c(S(N)(=O)=O)c1 [DCP],472 nM
28,"NS(=O)(=O)c1ccc(CCO)cc1 [compound 17, 17]",715 nM
29,"NS(=O)(=O)c1cc(Cl)cc(Cl)c1O [compound 10, 10]",4160 nM

# Target: T2, hCA I (Homo sapiens, UniProt P00915)
# T2 construct: gene CA1
# T2 sequence (P00915 2-261): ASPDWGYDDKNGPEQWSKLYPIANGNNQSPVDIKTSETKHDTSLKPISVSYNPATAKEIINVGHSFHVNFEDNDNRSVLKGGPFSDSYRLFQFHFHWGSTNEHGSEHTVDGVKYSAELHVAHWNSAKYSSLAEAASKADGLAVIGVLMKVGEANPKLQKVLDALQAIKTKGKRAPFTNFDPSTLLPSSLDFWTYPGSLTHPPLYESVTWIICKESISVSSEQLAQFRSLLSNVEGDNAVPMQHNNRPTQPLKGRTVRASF
# Assay: stopped-flow CO2 hydrase assay
# Type: biochemical
# Conditions: CO2 substrate, […] HEPES pH […] °C, […] min preincubation; read-out: KI (nM) ^a / CA I
row,SMILES,Ki
1,"NS(=O)(=O)c1cccc(S(N)(=O)=O)c1 [compound 3, 3]",79 nM

# Same assay, conditions: read-out: KI (nM) ^a / CA I
row,SMILES,Ki
1,"Cc1ccc(S(N)(=O)=O)cc1 [compound 4, 4]",78500 nM
